The record followed here is US20240279288A1, “APPLICATION OF PLANT JAZ PROTEINS AND DERIVED POLYPEPTIDES IN PREVENTION AND TREATMENT OF HUMAN AND ANIMAL TUMORS” (ANYANG INSTITUTE OF SINO-COTTON INDUSTRY INNOVATION, priority 2021, published 2024).

The test system of assay [1] is callus of cotton "CCRI 24". Nature of the assay: Growth of cotton callus on medium with JA synthesis inhibitor. To be noted: DIECA 200, 400, 800 μM or ibuprofen 20, 40, 80 μM in callus induction medium; hypocotyl explants. The method, then: (§1) Explants from “CCRI 24” were cut to consistent length and placed under the same conditions for cultivation. After one month, the growth of callus was observed and photographed with a camera and microscope. Statistics on the weights of callus and measurement of JA content were performed.

Assay [2] relates to JA content of callus of cotton "CCRI 24". The experiment in a line: JA content in cotton callus (HPLC). To be noted: DIECA 200, 400, 800 μM or ibuprofen 20, 40, 80 μM in callus induction medium. The method, then: as §1
The subject of assay [3] is cell cycle-related genes of callus. The experiment in a line: Fluorescence quantitative PCR of cell cycle-related genes in cotton callus. To be noted: DIECA 200, 400, 800 μM or ibuprofen 20, 40, 80 μM in callus induction medium. How it is done: Identification at the RNA level: RNA was extracted using RNA extraction kit (RNAprep Pure Polysaccharide Polyphenol Plant Total RNA Extraction Kit (DP441), manufacturer: TIANGEN BIOTECH (BEIJING) CO., LTD.), and then cDNA was obtained using two-step reverse transcription kit (a third-generation premix for two-step de-genomization and reverse transcription, Cat. No.: MR05201). cDNA as a template was added into a 96-well plate, with addition of SYBR®Green I chimeric dye (an antibody dye quantitative PCR premix, Cat. No.: MQ10101) and gene primers for three-step qPCR amplification. Finally, the relative gene expression was calculated based on the Ct value.
The steps of RNA extraction, reverse transcription, and fluorescence quantitative PCR were the same as above, and the sequences of primers were as follows: […]
as §1

Assay [4] concerns MCF7 cells. The experiment in a line: Detection of GhJAZ1 protein entry into the nucleus, fluorescence microscope. Format: cell-based, human. To be noted: 0.5 μM. From the text:
In order to explore how GhJAZ1 enters cancer cells, we cloned the genes of most tumor surface receptors, including uPAR (NCBI database accession number of NM_002659.4), CCK1R (NP_000721.1), CCK2R (NP_001350481.1), HER2 (NP_004439.2), GRPR (NP_005305.1), MUC1 (NP_001358649.1), VEGFR1 (NP_002010.2), Insulin receptor (NM_000208.4), NTR (XM_011528827.2), PSMA (XM_017017432.1), TFR1 (NM_001128148.3), TFR2 (NM_003227.4), PEPT1 (NM_005073.4), APN (NM_001150.3). The receptor proteins that interact with GhJAZ1 were then screened by yeast two hybrid (the steps of the experiment as Example 3). […] We detected the interaction of GhJAZ1 with uPA (as the ligand of uPAR, NCBI database accession number of NP_002649.2) and uPAR by yeast two hybrid (the steps of the experiment as Example 3). […] GhJAZ1+RFP (the amino acid sequence set forth in SEQ ID No. 81, corresponding encoding gene sequence set forth in SEQ ID No. 82) was ligated to pET-30a (+) vector (YouBio, Cat. No.: VT1212) between NdeI and HindIII, and GhJAZ1+RFP protein with red fluorescence was prokaryotically expressed and purified (the step of method as step 2 in Example 4) (A in FIG. 11), and then MCF7 cells were treated with GhJAZ1+RFP protein and observed by a fluorescence microscope.

Consider `CCN(CC)C(=S)[S-].[Na+]` [DIECA], for which the “growth of callus of cotton” value in assay [1] was “significantly inhibit”. Besides, in assay [2], the “JA content of callus” value is “significantly decreased”. Further, the “cell cycle-related genes of callus” value in assay [3] is reported as “marked changes”.

On to `CC(C)Cc1ccc(C(C)C(=O)O)cc1` (stereo not shown) [ibuprofen], for which the “growth of callus of cotton” value in assay [1] is “significantly inhibit”. Also, the “JA content of callus” value in assay [2] is recorded as “significantly decreased”. In addition, the “cell cycle-related genes of callus” value in assay [3] is listed as “marked changes”.

Regarding “GhJAZ1+RFP: GhJAZ1 fused with RFP, red fluorescence, amino acid sequence SEQ ID No. 81”, the “entry into the nucleus of MCF7 cells (red fluorescence merged with blue nuclear fluorescence)” value in assay [4] is “entered the nucleus”.
